In brackets after ≈: the same amount, converted by molar mass. Where two headings read alike, the source gives them in different places.
Columns and labels:
Assay type in all cases: cell-based
S. aureus = assay: Broth dilution MIC determination (CLSI) against S. aureus strains; details: for MIC: Staphylococcus aureus
How it was run: (§1)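 Azithromycin and solithromycin were run alongside as controls. Strain panels included multidrug-resistant isolates, with emphasis on macrolide-resistance mechanisms, and MICs followed CLSI broth dilution procedures.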

S. pneumoniae = assay: Broth dilution MIC determination (CLSI) against S. pneumoniae strains; details: for MIC: Streptococcus pneumoniae
How it was run: as §1

S. pyogenes = assay: Broth dilution MIC determination (CLSI) against S. pyogenes strains; details: for MIC: Streptococcus pyogenes
How it was run: as §1

E. faecalis = assay: Broth dilution MIC determination (CLSI) against E. faecalis strains; details: for MIC: Enterococcus faecalis
How it was run: as §1

E. coli = assay: Broth dilution MIC determination (CLSI) against E. coli strains; details: for MIC: Escherichia coli
How it was run: as §1

A. baumannii = assay: Broth dilution MIC determination (CLSI) against A. baumannii strains; details: for MIC: Acinetobacter baumannii
How it was run: as §1

K. pneumoniae = assay: Broth dilution MIC determination (CLSI) against K. pneumoniae strains; details: for MIC: Klebsiella pneumoniae
How it was run: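 CLSI broth-dilution MICs across a panel including multidrug- and macrolide-resistant strains, with azithromycin and solithromycin as control compounds.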

P. aeruginosa = assay: Broth dilution MIC determination (CLSI) against P. aeruginosa strains; details: for MIC: Pseudomonas aeruginosa
How it was run: as §1

H. influenzae = assay: Broth dilution MIC determination (CLSI) against H. influenzae strains; details: for MIC: Haemophilus influenzae
Description: Minimum inhibitory concentrations (MICs) for macrolides described herein have been determined for unique strains of S. aureus, S. pneumoniae, S. pyogenes, E. faecalis, E. coli, A. baumannii, K. pneumoniae, P. aeruginosa, and H. influenzae, including several multidrug-resistant strains, with a special focus on macrolide resistant mechanisms. Azithromycin and solithromycin were included as control compounds. CLSI standard procedures for broth dilution MIC determination were used. Data for exemplary compounds described herein is shown in Tables M1-M7 and in Tables N1-N4.

[1] = ATCC29213, ATCC29213, read-out: MIC S. aureus ATCC29213
[2] = MRSA / USA100, MRSA: USA100, read-out: MIC S. aureus MRSA: USA100
[3] = MRSA / USA300, MRSA: USA300, read-out: MIC S. aureus MRSA: USA300
[4] = USA600, USA600, GISA, read-out: MIC S. aureus USA600, GISA
[5] = read-out: MIC S. aureus erm A genotype
[6] = ATCC49619, ATCC49619, read-out: MIC S. pneumoniae ATCC49619
[7] = erm B + mef A genotype, read-out: MIC S. pneumoniae erm B + mef A genotype
[8] = erm B + tet(M, O) genotype, read-out: MIC S. pneumoniae erm B + tet(M, O) genotype
[9] = read-out: MIC S. pneumoniae mef A genotype, mef A genotype
[10] = read-out: MIC S. pneumoniae mef A genotype, mef A genotype, first of two such columns (c3)
[11] = ATCC19615, ATCC19615, read-out: MIC S. pyogenes ATCC19615
[12] = macrolide-resistant, read-out: MIC S. pyogenes macrolide-resistant
[13] = ATCC29212, ATCC29212, read-out: MIC E. faecalis ATCC29212
[14] = Vancomycin-resistant, read-out: MIC E. faecalis Vancomycin-resistant
[15] = ATCC25922, ATCC25922, read-out: MIC E. coli ATCC25922
[16] = read-out: MIC E. coli NDM-1, NDM-1
[17] = ATCC19606, ATCC19606, read-out: MIC A. baumannii ATCC19606
[18] = imipenem-resistant, read-out: MIC A. baumannii imipenem-resistant
[19] = ATCC10031, ATCC10031, read-out: MIC K. pneumoniae ATCC10031
[20] = KPC-2, read-out: MIC K. pneumoniae KPC-2
[21] = ATCC27853, read-out: MIC P. aeruginosa ATCC27853
[22] = ATCC49247, ATCC49247, read-out: MIC H. influenzae ATCC49247
[23] = erythro > 4, azithro 1, read-out: MIC H. influenzae erythro > 4, azithro 1

## CC[C@H]1OC(=O)[C@H](C)C(=O)[C@H](C)[C@@H](O[C@@H]2OC(CNC(=O)CNC(C)(C)C)CC(N(C)C)C2O)[C@](C)(OC)C[C@@H](C)CN[C@H](C)[C@H]2N(CCCCn3cc(-c4cccc(N)c4)nn3)C(=O)O[C@]12C (stereo partly drawn) [FSM-21879]
S. aureus; [1]
  MIC: 32 µg/mL (≈ 33.5 µM)
S. aureus; [2]
  MIC: > 32 µg/mL
S. aureus; [3]
  MIC: > 32 µg/mL
S. aureus; [4]
  MIC: > 32 µg/mL
S. aureus; [5]
  MIC: > 32 µg/mL
S. pneumoniae; [6]
  MIC: < 0.0313 µg/mL
S. pneumoniae; [7]
  MIC: 1 µg/mL
S. pneumoniae; [8]
  MIC: < 0.0313 µg/mL
S. pneumoniae; [9]
  MIC: 4 µg/mL (≈ 4.18 µM)
S. pneumoniae; [10]
  MIC: 0.25 µg/mL (≈ 0.261 µM)
S. pyogenes; [11]
  MIC: < 0.0313 µg/mL
S. pyogenes; [12]
  MIC: 2 µg/mL (≈ 2.09 µM)
E. faecalis; [13]
  MIC: 16 µg/mL (≈ 16.7 µM)
E. faecalis; [14]
  MIC: > 32 µg/mL
E. coli; [15]
  MIC: 32 µg/mL (≈ 33.5 µM)
E. coli; [16]
  MIC: 32 µg/mL (≈ 33.5 µM)
A. baumannii; [17]
  MIC: > 32 µg/mL
A. baumannii; [18]
  MIC: > 32 µg/mL
K. pneumoniae; [19]
  MIC: 8 µg/mL (≈ 8.37 µM)
K. pneumoniae; [20]
  MIC: > 32 µg/mL
P. aeruginosa; [21]
  MIC: > 32 µg/mL
H. influenzae; [22]
  MIC: 16 µg/mL (≈ 16.7 µM)
H. influenzae; [23]
  MIC: 8 µg/mL (≈ 8.37 µM)

## CCC1OC(=O)C(C)C(=O)C(C)C(OC2OC(Cn3cc(-c4cnc(N)s4)nn3)CC(N(C)C)C2O)C(C)(OC)CC(C)CNC(C)C2N(CCCCn3cc(-c4cccc(N)c4)nn3)C(=O)OC12C (stereo not drawn) [FSM-22373]
S. aureus; ATCC29213
  MIC S. aureus ATCC29213: >32 µg/mL
S. aureus; MRSA: USA100
  MIC S. aureus MRSA: USA100: >32 µg/mL
S. aureus; MRSA: USA300
  MIC S. aureus MRSA: USA300: >32 µg/mL
S. aureus; USA600, GISA
  MIC S. aureus USA600, GISA: >32 µg/mL
S. aureus; erm A genotype
  MIC S. aureus erm A genotype: >32 µg/mL
S. pneumoniae; ATCC49619
  MIC S. pneumoniae ATCC49619: <0.03125 µg/mL
S. pneumoniae; erm B + mef A genotype
  MIC S. pneumoniae erm B + mef A genotype: 32 µg/mL
S. pneumoniae; erm B + tet(M, O) genotype
  MIC S. pneumoniae erm B + tet(M, O) genotype: <0.03125 µg/mL
S. pyogenes; ATCC19615
  MIC S. pyogenes ATCC19615: 8 µg/mL (≈ 8.05 µM)
S. pyogenes; macrolide-resistant
  MIC S. pyogenes macrolide-resistant: >32 µg/mL
E. faecalis; ATCC29212
  MIC E. faecalis ATCC29212: 32 µg/mL (≈ 32.2 µM)
E. faecalis; Vancomycin-resistant
  MIC E. faecalis Vancomycin-resistant: >32 µg/mL
E. coli; ATCC25922
  MIC E. coli ATCC25922: >32 µg/mL
E. coli; CTX-M-14
  MIC E. coli CTX-M-14: >32 µg/mL
E. coli; NDM-1
  MIC E. coli NDM-1: >32 µg/mL
E. coli; TEM-1
  MIC E. coli TEM-1: >32 µg/mL
A. baumannii; ATCC19606
  MIC A. baumannii ATCC19606: >32 µg/mL
A. baumannii; IMP-4
  MIC A. baumannii IMP-4: >32 µg/mL
A. baumannii; chromosomal class C
  MIC A. baumannii chromosomal class C: >32 µg/mL
A. baumannii; imipenem-resistant
  MIC A. baumannii imipenem-resistant: >32 µg/mL
K. pneumoniae; ATCC10031
  MIC K. pneumoniae ATCC10031: >32 µg/mL
K. pneumoniae; KPC-2
  MIC K. pneumoniae KPC-2: >32 µg/mL
K. pneumoniae; SHV-12
  MIC K. pneumoniae SHV-12: >32 µg/mL
K. pneumoniae; TEM-10
  MIC K. pneumoniae TEM-10: 32 µg/mL (≈ 32.2 µM)
P. aeruginosa; ATCC27853
  MIC P. aeruginosa ATCC27853: >32 µg/mL
P. aeruginosa; HPA101-1477
  MIC P. aeruginosa HPA101-1477: >32 µg/mL
H. influenzae; ATCC49247
  MIC H. influenzae ATCC49247: >32 µg/mL
H. influenzae; erythro > 4, azithro 1
  MIC H. influenzae erythro > 4, azithro 1: 16 µg/mL (≈ 16.1 µM)

## CC[C@H]1OC(=O)[C@H](C)C(=O)[C@H](C)[C@@H](O[C@@H]2OC(CNC(=O)c3ccccn3)CC(N(C)C)C2O)[C@](C)(OC)C[C@@H](C)CN[C@H](C)[C@H]2N(CCCCn3cc(-c4cccc(N)c4)nn3)C(=O)O[C@]12C (stereo partly drawn) [FSM-21887]
S. aureus; [1]
  MIC: 8 µg/mL (≈ 8.44 µM)
S. aureus; [2]
  MIC: > 32 µg/mL
S. aureus; [3]
  MIC: > 32 µg/mL
S. aureus; [4]
  MIC: > 32 µg/mL
S. aureus; [5]
  MIC: > 32 µg/mL
S. pneumoniae; [6]
  MIC: ≤ 0.0312 µg/mL
S. pneumoniae; [7]
  MIC: 1 µg/mL
S. pneumoniae; [8]
  MIC: ≤ 0.0312 µg/mL
S. pneumoniae; [9]
  MIC: 0.5 µg/mL (≈ 0.527 µM)
S. pneumoniae; [10]
  MIC: 0.0625 µg/mL (≈ 0.0659 µM)
S. pyogenes; [11]
  MIC: ≤ 0.0312 µg/mL
S. pyogenes; [12]
  MIC: 1 µg/mL (≈ 1.05 µM)
E. faecalis; [13]
  MIC: 0.5 µg/mL (≈ 0.527 µM)
E. faecalis; [14]
  MIC: > 32 µg/mL
E. coli; [15]
  MIC: 16 µg/mL (≈ 16.9 µM)
E. coli; read-out: MIC E. coli CTX-M-14, CTX-M-14
  MIC: > 32 µg/mL
E. coli; [16]
  MIC: 32 µg/mL (≈ 33.7 µM)
E. coli; read-out: MIC E. coli TEM-1, TEM-1
  MIC: 16 µg/mL (≈ 16.9 µM)
A. baumannii; [17]
  MIC: 32 µg/mL (≈ 33.7 µM)
A. baumannii; IMP-4, read-out: MIC A. baumannii IMP-4
  MIC: > 32 µg/mL
A. baumannii; chromosomal class C, read-out: MIC A. baumannii chromosomal class C
  MIC: 32 µg/mL (≈ 33.7 µM)
A. baumannii; [18]
  MIC: 32 µg/mL (≈ 33.7 µM)
K. pneumoniae; [19]
  MIC: 8 µg/mL (≈ 8.44 µM)
K. pneumoniae; [20]
  MIC: > 32 µg/mL
K. pneumoniae; SHV-12, read-out: MIC K. pneumoniae SHV-12
  MIC: > 32 µg/mL
K. pneumoniae; TEM-10, read-out: MIC K. pneumoniae TEM-10
  MIC: 16 µg/mL (≈ 16.9 µM)
P. aeruginosa; [21]
  MIC: > 32 µg/mL
P. aeruginosa; read-out: MIC P. aeruginosa HPA101-1477
  MIC: > 32 µg/mL
H. influenzae; [22]
  MIC: 2 µg/mL (≈ 2.11 µM)
H. influenzae; [23]
  MIC: 2 µg/mL (≈ 2.11 µM)
